Legend:
OATP1B3 = target: T1, OATP1B3 (Homo sapiens, UniProt Q9NPD5); experiment: Inhibition by CLF of TC transport in CHO cells expressing OATP1B3; format: cell-based; conditions: 0, 5 or 50 μmol/L CLF, 10 μmol/L TC
T1 construct: expressed in transfected cells; host or cells: CHO cells (stably transfected; Treiber et al. 2007)
T1 sequence (Q9NPD5 1-702): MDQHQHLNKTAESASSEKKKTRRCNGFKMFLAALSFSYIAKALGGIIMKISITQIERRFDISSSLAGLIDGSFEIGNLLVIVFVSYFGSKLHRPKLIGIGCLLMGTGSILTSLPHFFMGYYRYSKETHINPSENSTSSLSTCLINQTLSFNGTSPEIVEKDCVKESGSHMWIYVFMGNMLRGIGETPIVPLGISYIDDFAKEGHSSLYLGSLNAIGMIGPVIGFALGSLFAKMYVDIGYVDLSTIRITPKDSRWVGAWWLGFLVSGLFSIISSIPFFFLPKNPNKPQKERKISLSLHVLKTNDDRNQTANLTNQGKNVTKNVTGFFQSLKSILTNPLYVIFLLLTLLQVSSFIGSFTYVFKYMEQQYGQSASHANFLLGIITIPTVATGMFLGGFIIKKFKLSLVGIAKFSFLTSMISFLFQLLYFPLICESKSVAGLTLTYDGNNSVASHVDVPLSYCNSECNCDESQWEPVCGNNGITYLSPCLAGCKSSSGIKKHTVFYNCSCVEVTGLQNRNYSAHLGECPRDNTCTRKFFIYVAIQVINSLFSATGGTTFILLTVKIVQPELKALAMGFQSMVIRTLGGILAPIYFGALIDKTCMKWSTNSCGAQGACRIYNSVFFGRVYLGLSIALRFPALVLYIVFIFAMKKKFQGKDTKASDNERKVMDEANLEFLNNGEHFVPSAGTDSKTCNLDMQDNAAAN
Protocol: (§1) FIGS. 3A-3D relate to inhibition of transport activity of hepatocellular uptake transporters by CLF. CHO cells expressing NTCP, OATP1B1, OATP1B3 and OATP2B1 were incubated with 0, 5 or 50 μmol/L CLF and with the substrates, 2.5 μmol/L TC, 1 μmol/L estrone-3-sulfate, 10 μmol/L TC and 1 μmol/L estrone-3-sulfate, respectively. Data represent means±SD of triplicate determinations.
(§2) For all transport experiments, cells grown on 3 cm culture dishes were cultured for 24 hours in media supplemented with 5 mmol/L sodium-butyrate to increase expression levels of transfected transporters [Palermo D P et al., J Biotechnol 1991 June; 19(1):35-47]. • Transport experiments with uptake of radioactively labeled substrates: These experiments were performed as described by Huber R D et al. [Am J Physiol Cell Physiol 2007 February; 292(2):C795-C806]. • Transport experiments with uptake of CLF: Uptake was performed in the same buffers as for the radioactive substrates above. […] After complete solubilization, 1.5 ml was used to measure fluorescence in a Perkin-Elmer LS-5 luminescence-spectrometer set at λexe 486 nm (slit 10 nm) and λem 520 nm (slit 5 nm). Protein was determined with the bicinchoninic acid method using a kit from Interchim (Montfuçon, France). […]

OATP2B1 = target: T2, OATP2B1 (Homo sapiens, UniProt O94956); experiment: Inhibition by CLF of estrone-3-sulfate transport in CHO cells expressing OATP2B1; format: cell-based; conditions: 0, 5 or 50 μmol/L CLF, 1 μmol/L estrone-3-sulfate
T2 construct: expressed in transfected cells; host or cells: CHO cells (stably transfected; Treiber et al. 2007)
T2 sequence (O94956 1-709): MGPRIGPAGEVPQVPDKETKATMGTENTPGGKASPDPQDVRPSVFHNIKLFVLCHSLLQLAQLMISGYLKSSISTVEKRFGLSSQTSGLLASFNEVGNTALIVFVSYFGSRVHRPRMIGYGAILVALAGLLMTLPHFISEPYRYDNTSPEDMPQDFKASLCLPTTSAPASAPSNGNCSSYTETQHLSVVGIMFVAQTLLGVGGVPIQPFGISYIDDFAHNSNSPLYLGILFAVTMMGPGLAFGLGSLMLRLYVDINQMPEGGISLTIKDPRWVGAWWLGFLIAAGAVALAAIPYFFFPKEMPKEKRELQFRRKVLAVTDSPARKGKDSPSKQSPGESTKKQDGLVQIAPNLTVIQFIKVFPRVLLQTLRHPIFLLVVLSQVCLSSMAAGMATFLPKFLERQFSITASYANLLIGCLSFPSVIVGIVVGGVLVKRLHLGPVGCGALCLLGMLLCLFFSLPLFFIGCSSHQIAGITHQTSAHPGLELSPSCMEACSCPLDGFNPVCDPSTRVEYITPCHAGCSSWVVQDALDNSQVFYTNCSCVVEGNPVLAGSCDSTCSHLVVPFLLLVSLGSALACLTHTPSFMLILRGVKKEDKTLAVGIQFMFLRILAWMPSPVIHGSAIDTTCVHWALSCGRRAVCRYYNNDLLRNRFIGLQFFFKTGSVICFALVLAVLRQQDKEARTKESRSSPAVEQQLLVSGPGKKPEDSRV
Protocol: as §1, §2

## CC(CCC(=O)NC(CCCCNC(=S)Nc1ccc(-c2c3ccc(=O)cc-3oc3cc(O)ccc23)c(C(=O)O)c1)C(=O)O)C1CCC2C3C(O)CC4CC(O)CCC4(C)C3CC(O)C12C (centres unmarked) [CLF, cholyl lysyl fluorescein]
OATP1B3
  inhibition of transport of TC mediated by OATP1B3 by CLF: inhibited by CLF in a dose-dependent manner
OATP2B1
  inhibition of transport of estrone-3-sulfate mediated by OATP2B1 by CLF: much less efficiently

— patent publication US8318504B2, “MRP2 efflux pathway prognostic method” (priority 2009, dated 2012)
